Measurements reported in paper PMC8303187, “Anti-Inflammatory Effects of Compounds from Cudrania tricuspidata in HaCaT Human Keratinocytes” (International Journal of Molecular Sciences, 2021).

These compounds were tested on IL-6 production in TNF-α + IFN-γ-treated HaCaT cells (assay: IL-6 production in TNF-α + IFN-γ-treated HaCaT cells (ELISA)). Conditions: HaCaT cells pre-incubated with compound 3 h, then TNF-α + IFN-γ (20 ng/mL) 24 h; ELISA.
Type: cell-based, human
Source text: The skin consists of two basic layers: the epidermis and dermis. The epidermis is mainly composed of keratinocytes. Pro-inflammatory cytokines are known to play an important role in the immune response in keratinocytes. Previous studies have reported the roles of TNF-α and IFN-γ in inducing NF-κB activation, which upregulates the production of IL-6 and IL-8 [25]. […] Accordingly, the effect of the 16 compounds from C. tricuspidata on IL-6 production in TNF-α + IFN-γ-treated HaCaT cells were determined. Briefly, HaCaT cells were pre-incubated with different concentrations of the 16 compounds for 3 h, and then stimulated with TNF-α + IFN-γ for 24 h.
(§1) The cytokines and chemokines in IL-6, IL-8, CCL17 (TARC), and CCL5 (RANTES) HaCaT cells were detected using an enzyme-linked immunosorbent assay. The levels of these cytokines and chemokines were measured using commercial ELISA kits (BioLegend, San Diego, CA, USA), according to the manufacturer’s instructions.
Figure S2. Effects of the 16 compounds from C. tricuspidata on IL-6 production in TNF-α+IFN-γ-treated HaCaT cells (A, B, and C). Cells were pre-treated with the indicated concentrations of the 16 compounds from C. tricuspidata for 3 h and then stimulated with TNF-α+IFN-γ (20 ng/mL) for 24 h. IL-6 levels were determined as described in the Materials and Methods section. The results are presented as the mean ± standard deviation of three experiments. *p < 0.05, **p < 0.01, and ***p < 0.001 compared with TNF-

Compound | IC50 [µM]
cudraxanthone M [Compound 8] | > 10

Same assay, conditions: HaCaT cells pre-treated 3 h, then TNF-α + IFN-γ 24 h; result in words

Compound | IL-6 production
O=C1c2c(O)cc(O)cc2O[C@H](c2ccc(O)cc2)[C@H]1O [Compound 1, dihydrokaempferol] | significantly decreased
O=C1CC(c2ccc(O)cc2O)Oc2cc(O)cc(O)c21 (stereo not drawn) [Compound 2, steppogenin] | significantly decreased
CC(C)=CCc1cc([C@H]2Oc3cc(O)c(CC=C(C)C)c(O)c3C(=O)C2O)c(O)cc1O (stereo partly drawn) [Compound 3, cudraflavanone D] | significantly decreased
CC(C)=CCc1c(-c2ccc(O)cc2O)oc2c(CC=C(C)C)c(O)cc(O)c2c1=O [Compound 7, kuwanon C] | significantly decreased
C=CC(C)(C)c1c(O)cc2oc3c(CC=C(C)C)c(O)c(O)cc3c(=O)c2c1O [Compound 10, cudraxanthone L] | significantly decreased

Same assay, conditions: Homo sapiens; HaCaT cells pre-incubated with compound 3 h, then TNF-α + IFN-γ (20 ng/mL) 24 h; ELISA

Compound | IC50 [µM]
O=C1c2c(O)cc(O)cc2O[C@H](c2ccc(O)cc2)[C@H]1O [Compound 1, dihydrokaempferol] | > 80
O=C1CC(c2ccc(O)cc2O)Oc2cc(O)cc(O)c21 (stereo not drawn) [Compound 2, steppogenin] | > 80
CC(C)=CCc1cc([C@H]2Oc3cc(O)c(CC=C(C)C)c(O)c3C(=O)C2O)c(O)cc1O (stereo partly drawn) [Compound 3, cudraflavanone D] | > 10
CC(C)=CCc1c(-c2ccc(O)cc2O)oc2c(CC=C(C)C)c(O)cc(O)c2c1=O [Compound 7, kuwanon C] | 25.8 ± 5.16
C=CC(C)(C)c1c(O)cc2oc3c(CC=C(C)C)c(O)c(O)cc3c(=O)c2c1O [Compound 10, cudraxanthone L] | > 2

These compounds were tested on IL-8 production in TNF-α + IFN-γ-treated HaCaT cells (assay: IL-8 production in TNF-α + IFN-γ-treated HaCaT cells (ELISA)). Conditions: HaCaT cells pre-incubated with compound 3 h, then TNF-α + IFN-γ (20 ng/mL) 24 h; ELISA.
Type: cell-based, human
Method: Next, the effect of the 16 compounds from C. tricuspidata on IL-8 production in HaCaT cells were determined. Briefly, HaCaT cells were pre-incubated with different concentrations of the 16 compounds for 3 h. Thereafter, the cells were subjected to TNF-α + IFN-γ stimulation for 24 h. […] Compound 2, with its flavanone skeletons, has been studied for its cyclooxygenase and tyrosinase inhibitory effects. In a previous study, compound 2 altered the anti-neuroinflammatory response in microglia. Compound 6, a prenylated flavanone, has been reported to have apoptotic effects on A375.S2 melanoma cells and to lead to the induction of apoptotic cell death in KM12, Caco-2, HT29, HCC2998, HCT116, and SW48 cell lines. […] This is the first report on the biological action of compounds 2, 6, 12, 13, 4, and 14 on the inhibitory effects of skin inflammatory factors in skin HaCaT cells. Therefore, further mechanism studies of these six compounds in HaCaT cells were conducted.
as §1
Figure S3. Effects of the 16 compounds from C. tricuspidata on IL-8 (A, B, and C) production in TNF-α+IFN-γ-treated HaCaT cells. The cells were pre-treated with the indicated concentrations of the C. tricuspidata compounds for 3 h, and then stimulated with TNF-α+IFN-γ (20 ng/mL) for 24 h. […] levels were determined as described in the Materials and Methods section. Data are expressed as the mean ± standard deviation of three experiments. *p < 0.05, **p < 0.01, and ***p < 0.001 compared with TNF- […]
(1 picture or pasted object on this page, not shown here)

Compound | IC50 [µM]
cudraxanthone M [Compound 8] | > 10

Same assay, conditions: HaCaT cells pre-treated 3 h, then TNF-α + IFN-γ 24 h; result in words

Compound | IL-8 production
O=C1c2c(O)cc(O)cc2O[C@H](c2ccc(O)cc2)[C@H]1O [Compound 1, dihydrokaempferol] | decreased
O=C1CC(c2ccc(O)cc2O)Oc2cc(O)cc(O)c21 (stereo not drawn) [Compound 2, steppogenin] | decreased
CC(C)=CCc1cc([C@H]2Oc3cc(O)c(CC=C(C)C)c(O)c3C(=O)C2O)c(O)cc1O (stereo partly drawn) [Compound 3, cudraflavanone D] | decreased
CC(C)=CCc1c(-c2ccc(O)cc2O)oc2c(CC=C(C)C)c(O)cc(O)c2c1=O [Compound 7, kuwanon C] | decreased
C=CC(C)(C)c1c(O)cc2oc3c(CC=C(C)C)c(O)c(O)cc3c(=O)c2c1O [Compound 10, cudraxanthone L] | decreased
cudraxanthone M [Compound 8] | decreased

Same assay, conditions: Homo sapiens; HaCaT cells pre-incubated with compound 3 h, then TNF-α + IFN-γ (20 ng/mL) 24 h; ELISA

Compound | IC50 [µM]
O=C1c2c(O)cc(O)cc2O[C@H](c2ccc(O)cc2)[C@H]1O [Compound 1, dihydrokaempferol] | > 80
O=C1CC(c2ccc(O)cc2O)Oc2cc(O)cc(O)c21 (stereo not drawn) [Compound 2, steppogenin] | 62.2 ± 16.5
CC(C)=CCc1cc([C@H]2Oc3cc(O)c(CC=C(C)C)c(O)c3C(=O)C2O)c(O)cc1O (stereo partly drawn) [Compound 3, cudraflavanone D] | 4.2 ± 1.03
CC(C)=CCc1c(-c2ccc(O)cc2O)oc2c(CC=C(C)C)c(O)cc(O)c2c1=O [Compound 7, kuwanon C] | > 40
C=CC(C)(C)c1c(O)cc2oc3c(CC=C(C)C)c(O)c(O)cc3c(=O)c2c1O [Compound 10, cudraxanthone L] | > 2

The compounds below were run on HaCaT cells (assay: Cell Counting Kit (CCK)-8 cell viability / cytotoxicity assay). Conditions: CCK-8 assay, 24 h, concentration values that did not result in cytotoxicity.
Method: The cytotoxicity of the 16 compounds was evaluated using a Cell Counting Kit (CCK)-8 assay on HaCaT cells.
To determine the viability of HaCaT cells, these were maintained at 2 × 10^4 cells/well, treated with the test compounds in the presence or absence of glutamate (5 mM), and cultured for 24 h. Subsequently, a CCK8 assay (Dojindo Laboratories, Kumamoto, Japan) was performed and the cells were incubated for 1 h. The absorbance was then measured at 450 nm.

Compound | Cytotoxicity [µM]
O=C1c2c(O)cc(O)cc2O[C@H](c2ccc(O)cc2)[C@H]1O [Compound 1, dihydrokaempferol] | >80
O=C1CC(c2ccc(O)cc2O)Oc2cc(O)cc(O)c21 (stereo not drawn) [Compound 2, steppogenin] | >80
CC(C)=CCc1cc([C@H]2Oc3cc(O)c(CC=C(C)C)c(O)c3C(=O)C2O)c(O)cc1O (stereo partly drawn) [Compound 3, cudraflavanone D] | >10
CC(C)=CCc1c(-c2ccc(O)cc2O)oc2c(CC=C(C)C)c(O)cc(O)c2c1=O [Compound 7, kuwanon C] | >40
C=CC(C)(C)c1c(O)cc2oc3c(CC=C(C)C)c(O)c(O)cc3c(=O)c2c1O [Compound 10, cudraxanthone L] | >2
cudraxanthone M [Compound 8] | >10

Each compound was assayed on NF-κB p65 translocation to the nucleus in HaCaT cells (assay: NF-κB p65 translocation to the nucleus in TNF-α + IFN-γ-treated HaCaT cells (Western blotting)). Conditions: HaCaT cells pretreated 3 h, then TNF-α + IFN-γ (20 ng/mL) 10 min; Western blot.
Type: cell-based, human
Source text: The activation of NF-κB by TNF-α and/or IFN-γ results from high levels of IκB phosphorylation and the degradation of IκB in keratinocytes. NF-κB–mediated inflammation is a significant component of innate immunity and seems to be a final common pathway for the aggravation of the inflammatory response to stimuli in immune diseases of the skin [56]. To determine the potential mechanisms of the inhibition of TNF-α + IFN-γ-induced pro-inflammatory enzyme and the mediator levels by the six compounds from C. tricuspidata, their effects on the phosphorylation and degradation of cytoplasmic IκBα and on p65 translocation to the nucleus were investigated. […] In addition, compounds 13, 4, and 14 inhibited the phosphorylation of IκBα (Figure 5C,D). When HaCaT cells were exposed to TNF-α + IFN-γ, NF-κB p65 translocated from the cytoplasm to the nucleus.
Figure 5 Effects of the six compounds from C. tricuspidata on the degradation of IκB-α (A,B), the phosphorylation of IκBα (C,D), and the translocation of NF-κB p65 to the nucleus (E,F) in HaCaT cells. Cells were pretreated with the six compounds from C. tricuspidata at the indicated concentrations for 3 h and stimulated with TNF-α + IFN-γ (20 ng/mL) for 10 min. IκBα, p-IκBα, and NF-κB p65 were analyzed using Western blotting, as described in the Materials and Methods section. Representative blots from four independent experiments are presented. The immunoblots were quantified using ImageJ software. The band intensity was normalized to that of actin or anti-proliferating cell nuclear antigen (PCNA). * p < 0.05, ** p < 0.01, *** p < 0.001 compared with TNF-α + IFN-γ only.
Cells were harvested and pelleted via centrifugation at 200× g for 3 min, washed with PBS, and lysed in 20 mM Tris-HCl buffer (pH 7.4) containing a protease inhibitor mixture (0.1 mM phenylmethanesulfonyl fluoride, 5 mg/mL aprotinin, 5 mg/mL pepstatin A, and 1 mg/mL chymostatin). The protein concentration was determined using a protein assay dye reagent concentrate (#5000006; Bio-Rad Laboratories, Hercules, CA, USA). A total of 30 micrograms of protein from each sample was resolved using 7.5% and 12% sodium dodecyl sulfate-polyacrylamide gel electrophoresis. Thereafter, the proteins were electrophoretically transferred onto Hybond enhanced chemiluminescence (ECL) nitrocellulose membranes (Bio-Rad Laboratories). The membranes were blocked with 5% skimmed milk, and sequentially incubated with the relevant primary antibody and horseradish peroxidase-conjugated secondary antibody, prior to ECL detection (Pierce Biotechnology, Rockford, IL, USA).
HaCaT cells were homogenized in PER-Mammalian Protein Extraction Buffer (1:20, w:v) (Pierce Biotechnology, Rockford, IL, USA) containing freshly added protease inhibitor cocktail I (EMD Biosciences, San Diego, CA, USA) and 1 mM phenylmethanesulfonyl fluoride. The cytosolic fractions were prepared using centrifugation at 16,000× g for 5 min at 4 °C, while the nuclear and cytoplasmic cell extracts were prepared using NE-PER nuclear and cytoplasmic extraction reagents, respectively (Pierce Biotechnology, Rockford, IL, USA).

Compound | NF-κB p65 translocation to the nucleus
O=C1CC(c2ccc(O)cc2O)Oc2cc(O)cc(O)c21 (stereo not drawn) [Compound 2, steppogenin] | significantly inhibited
